Source: patent publication US10815230B2, “Casein kinase 1 delta inhibitor” (ELECTROPHORETICS LIMITED, priority 2015, dated 2020)

Experiments:
Format in all cases: biochemical
CK1a1 = CK1a1 (Homo sapiens, UniProt P48729); assay: Kinase selectivity, % remaining activity; conditions: CK1a1, 10 μM compound, 10 μM ATP, duplicate
Procedure: (§1) Compounds were tested in single dose duplicate mode at a concentration of 10 μM (in DMSO) and reactions were carried out at 10 μM ATP, Table 3 reports the % of remaining activity (relative to DMSO).

[1] = target: CK1d (casein kinase 1 delta) (Homo sapiens, UniProt P48730); assay: Kinase selectivity, % remaining activity and IC50; conditions: 10 μM ATP
CK1d (casein kinase 1 delta), sequence (P48730 whole entry): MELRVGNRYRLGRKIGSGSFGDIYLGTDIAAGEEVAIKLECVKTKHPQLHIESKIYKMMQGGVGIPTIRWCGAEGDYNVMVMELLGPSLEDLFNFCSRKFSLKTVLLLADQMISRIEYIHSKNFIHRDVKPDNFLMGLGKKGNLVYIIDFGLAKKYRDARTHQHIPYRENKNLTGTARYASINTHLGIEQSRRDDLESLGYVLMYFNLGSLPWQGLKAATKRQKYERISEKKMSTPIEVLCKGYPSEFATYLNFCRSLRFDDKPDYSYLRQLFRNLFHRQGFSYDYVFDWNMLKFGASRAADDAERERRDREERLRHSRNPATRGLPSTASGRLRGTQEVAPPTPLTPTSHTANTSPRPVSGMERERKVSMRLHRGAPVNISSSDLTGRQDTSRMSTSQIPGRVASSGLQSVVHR
Procedure: (§2) A two-tier strategy to determine the selectivity of compound A was applied: first, the compound was tested at a single concentration (in duplicate) to determine the %-remaining activity of the target kinase. Subsequently, the IC50 of compound A and comparative compounds for casein kinase 1 delta were determined.
as §1
Control compound GW5074 (Tocris®) was tested starting at 20 μM. Reactions were carried out at 10 μM ATP.

CK1g3 = CK1g3 (Homo sapiens, UniProt Q9Y6M4); assay: Kinase selectivity, % remaining activity; conditions: 10 μM compound, 10 μM ATP, duplicate
Procedure: as §2, §1

YES/YES1 = YES/YES1 (Homo sapiens, UniProt P07947); assay: Kinase selectivity, % remaining activity; conditions: 10 μM compound, 10 μM ATP, duplicate
YES/YES1, sequence (P07947 whole entry): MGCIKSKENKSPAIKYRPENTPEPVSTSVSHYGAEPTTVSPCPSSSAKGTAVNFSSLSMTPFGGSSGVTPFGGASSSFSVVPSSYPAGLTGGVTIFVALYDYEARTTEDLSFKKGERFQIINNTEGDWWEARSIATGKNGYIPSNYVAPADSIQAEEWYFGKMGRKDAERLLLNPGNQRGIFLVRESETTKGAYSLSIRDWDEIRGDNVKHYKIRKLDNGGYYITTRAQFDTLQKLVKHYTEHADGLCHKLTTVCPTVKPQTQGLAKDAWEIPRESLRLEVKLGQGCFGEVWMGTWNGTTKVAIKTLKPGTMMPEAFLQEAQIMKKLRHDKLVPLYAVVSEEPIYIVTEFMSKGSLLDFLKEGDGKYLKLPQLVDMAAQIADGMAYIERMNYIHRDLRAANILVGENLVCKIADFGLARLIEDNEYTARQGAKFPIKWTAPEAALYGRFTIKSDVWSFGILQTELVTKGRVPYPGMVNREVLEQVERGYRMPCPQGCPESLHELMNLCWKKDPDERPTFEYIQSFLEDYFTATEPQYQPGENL
Procedure: as §2, §1

KDR/VEGFR2 = KDR/VEGFR2 (Homo sapiens, UniProt P35968); assay: Kinase selectivity, % remaining activity; conditions: 10 μM compound, 10 μM ATP, duplicate
Procedure: as §2, §1

TNIK = TNIK (Homo sapiens, UniProt Q9UKE5); assay: Kinase selectivity, % remaining activity; conditions: 10 μM compound, 10 μM ATP, duplicate
Procedure: as §2, §1

GSK3B = GSK3B (Homo sapiens, UniProt P49841); assay: Kinase selectivity, % remaining activity; conditions: 10 μM compound, 10 μM ATP, duplicate
GSK3B, sequence (P49841 whole entry): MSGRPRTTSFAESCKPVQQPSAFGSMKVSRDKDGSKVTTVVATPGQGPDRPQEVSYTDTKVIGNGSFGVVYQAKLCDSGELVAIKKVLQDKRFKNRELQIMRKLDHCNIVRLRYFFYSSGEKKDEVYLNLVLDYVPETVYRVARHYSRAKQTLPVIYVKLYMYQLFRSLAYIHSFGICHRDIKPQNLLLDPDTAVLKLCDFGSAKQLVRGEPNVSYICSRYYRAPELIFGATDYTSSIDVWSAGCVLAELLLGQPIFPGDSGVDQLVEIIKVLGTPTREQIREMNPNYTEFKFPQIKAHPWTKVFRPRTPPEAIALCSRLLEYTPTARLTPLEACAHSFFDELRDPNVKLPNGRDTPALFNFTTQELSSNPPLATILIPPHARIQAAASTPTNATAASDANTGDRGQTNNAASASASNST
Procedure: as §2, §1

PKA = PKA (Homo sapiens, UniProt P17612); assay: Kinase selectivity, % remaining activity; conditions: 10 μM compound, 10 μM ATP, duplicate
Procedure: as §2, §1

ALK5/TGFBR1 = target: T1, ALK5/TGFBR1 (Homo sapiens, UniProt P36897); assay: Kinase selectivity, % remaining activity; conditions: 10 μM compound, 10 μM ATP, duplicate
T1 sequence (P36897 34-503): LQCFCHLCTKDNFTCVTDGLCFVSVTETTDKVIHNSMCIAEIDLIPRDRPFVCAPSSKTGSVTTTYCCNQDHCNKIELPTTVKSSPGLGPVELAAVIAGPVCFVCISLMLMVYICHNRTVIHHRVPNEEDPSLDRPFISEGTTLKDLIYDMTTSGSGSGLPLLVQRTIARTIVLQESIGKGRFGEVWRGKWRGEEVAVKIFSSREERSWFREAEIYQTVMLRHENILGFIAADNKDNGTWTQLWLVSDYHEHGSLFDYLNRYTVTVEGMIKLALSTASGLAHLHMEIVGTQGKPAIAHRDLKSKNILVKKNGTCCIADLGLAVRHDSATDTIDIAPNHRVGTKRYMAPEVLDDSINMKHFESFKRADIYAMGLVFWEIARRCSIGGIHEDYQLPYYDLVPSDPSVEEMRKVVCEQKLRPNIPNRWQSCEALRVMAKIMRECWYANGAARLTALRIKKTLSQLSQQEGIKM
Procedure: as §2, §1

ABL2/ARG = ABL2/ARG (Homo sapiens, UniProt P42684); assay: Kinase selectivity, % remaining activity; conditions: 10 μM compound, 10 μM ATP, duplicate
Procedure: as §2, §1

RIPK2 = RIPK2 (Homo sapiens, UniProt O43353); assay: Kinase selectivity, % remaining activity; conditions: 10 μM compound, 10 μM ATP, duplicate
RIPK2, sequence (O43353 whole entry): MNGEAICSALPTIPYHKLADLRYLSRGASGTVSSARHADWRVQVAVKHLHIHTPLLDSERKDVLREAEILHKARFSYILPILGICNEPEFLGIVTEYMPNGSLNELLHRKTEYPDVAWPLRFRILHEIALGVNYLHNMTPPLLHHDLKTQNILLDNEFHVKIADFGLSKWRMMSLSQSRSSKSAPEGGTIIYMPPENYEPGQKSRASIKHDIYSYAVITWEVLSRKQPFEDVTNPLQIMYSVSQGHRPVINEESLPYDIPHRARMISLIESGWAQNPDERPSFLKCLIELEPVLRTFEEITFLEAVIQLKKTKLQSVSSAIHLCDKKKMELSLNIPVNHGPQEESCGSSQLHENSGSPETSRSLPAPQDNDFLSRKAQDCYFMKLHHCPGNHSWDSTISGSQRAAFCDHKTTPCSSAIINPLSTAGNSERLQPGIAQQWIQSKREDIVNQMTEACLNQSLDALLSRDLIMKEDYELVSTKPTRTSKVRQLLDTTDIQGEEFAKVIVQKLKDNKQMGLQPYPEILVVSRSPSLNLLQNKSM
Procedure: as §2, §1

PIM3 = PIM3 (Homo sapiens, UniProt Q86V86); assay: Kinase selectivity, % remaining activity; conditions: 10 μM compound, 10 μM ATP, duplicate
Procedure: as §2, §1

CLK2 = CLK2 (Homo sapiens, UniProt P49760); assay: Kinase selectivity, % remaining activity; conditions: 10 μM compound, 10 μM ATP, duplicate
Procedure: as §2, §1

JNK2 = JNK2 (Homo sapiens, UniProt P45984); assay: Kinase selectivity, % remaining activity; conditions: 10 μM compound, 10 μM ATP, duplicate
JNK2, sequence (P45984 whole entry): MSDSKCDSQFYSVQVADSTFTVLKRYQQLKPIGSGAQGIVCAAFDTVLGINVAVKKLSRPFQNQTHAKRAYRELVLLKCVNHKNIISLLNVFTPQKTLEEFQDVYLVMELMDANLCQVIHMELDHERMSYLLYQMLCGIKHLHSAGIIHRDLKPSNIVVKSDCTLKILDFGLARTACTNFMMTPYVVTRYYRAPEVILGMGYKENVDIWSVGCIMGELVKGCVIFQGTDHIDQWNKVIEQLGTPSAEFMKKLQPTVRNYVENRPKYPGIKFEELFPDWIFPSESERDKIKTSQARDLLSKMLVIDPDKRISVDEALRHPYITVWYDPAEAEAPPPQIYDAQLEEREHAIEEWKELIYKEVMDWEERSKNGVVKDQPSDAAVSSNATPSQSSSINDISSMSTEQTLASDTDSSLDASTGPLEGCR
Procedure: as §2, §1

c-Src = c-Src (Homo sapiens, UniProt P12931); assay: Kinase selectivity, % remaining activity; conditions: 10 μM compound, 10 μM ATP, duplicate
Procedure: as §2, §1

FGFR1 = FGFR1 (Homo sapiens, UniProt P11362); assay: Kinase selectivity, % remaining activity; conditions: 10 μM compound, 10 μM ATP, duplicate
FGFR1, sequence (P11362 22-822): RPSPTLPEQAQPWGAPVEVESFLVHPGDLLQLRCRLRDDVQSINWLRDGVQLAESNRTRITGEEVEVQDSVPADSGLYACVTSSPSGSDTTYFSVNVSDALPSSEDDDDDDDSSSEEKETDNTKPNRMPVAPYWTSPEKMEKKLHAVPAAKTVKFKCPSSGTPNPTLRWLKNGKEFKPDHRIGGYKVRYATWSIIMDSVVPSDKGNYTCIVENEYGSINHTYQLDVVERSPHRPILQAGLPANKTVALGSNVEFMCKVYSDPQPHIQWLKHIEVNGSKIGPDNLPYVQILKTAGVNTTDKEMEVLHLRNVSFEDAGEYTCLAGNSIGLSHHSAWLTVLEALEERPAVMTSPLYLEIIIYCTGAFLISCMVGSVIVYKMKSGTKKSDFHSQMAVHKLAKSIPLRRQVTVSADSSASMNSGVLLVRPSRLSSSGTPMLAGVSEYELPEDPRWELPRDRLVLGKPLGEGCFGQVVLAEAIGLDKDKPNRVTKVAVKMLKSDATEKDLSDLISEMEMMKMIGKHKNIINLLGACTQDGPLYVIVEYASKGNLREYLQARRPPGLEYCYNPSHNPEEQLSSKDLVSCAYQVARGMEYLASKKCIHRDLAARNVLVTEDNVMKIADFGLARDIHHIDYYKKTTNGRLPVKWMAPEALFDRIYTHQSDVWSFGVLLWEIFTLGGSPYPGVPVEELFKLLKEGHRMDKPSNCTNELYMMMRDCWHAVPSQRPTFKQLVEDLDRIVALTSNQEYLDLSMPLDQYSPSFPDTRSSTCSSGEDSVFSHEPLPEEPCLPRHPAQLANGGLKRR
Procedure: as §2, §1

EPHA2 = EPHA2 (Homo sapiens, UniProt P29317); assay: Kinase selectivity, % remaining activity; conditions: 10 μM compound, 10 μM ATP, duplicate
Procedure: as §2, §1

MSK1/RPS6KA5 = MSK1/RPS6KA5 (Homo sapiens, UniProt O75582); assay: Kinase selectivity, % remaining activity; conditions: 10 μM compound, 10 μM ATP, duplicate
Procedure: as §2, §1

PDK1/PDPK1 = target: T2, PDK1/PDPK1 (Homo sapiens, UniProt O15530); assay: Kinase selectivity, % remaining activity; conditions: 10 μM compound, 10 μM ATP, duplicate
T2 sequence (O15530 1-556): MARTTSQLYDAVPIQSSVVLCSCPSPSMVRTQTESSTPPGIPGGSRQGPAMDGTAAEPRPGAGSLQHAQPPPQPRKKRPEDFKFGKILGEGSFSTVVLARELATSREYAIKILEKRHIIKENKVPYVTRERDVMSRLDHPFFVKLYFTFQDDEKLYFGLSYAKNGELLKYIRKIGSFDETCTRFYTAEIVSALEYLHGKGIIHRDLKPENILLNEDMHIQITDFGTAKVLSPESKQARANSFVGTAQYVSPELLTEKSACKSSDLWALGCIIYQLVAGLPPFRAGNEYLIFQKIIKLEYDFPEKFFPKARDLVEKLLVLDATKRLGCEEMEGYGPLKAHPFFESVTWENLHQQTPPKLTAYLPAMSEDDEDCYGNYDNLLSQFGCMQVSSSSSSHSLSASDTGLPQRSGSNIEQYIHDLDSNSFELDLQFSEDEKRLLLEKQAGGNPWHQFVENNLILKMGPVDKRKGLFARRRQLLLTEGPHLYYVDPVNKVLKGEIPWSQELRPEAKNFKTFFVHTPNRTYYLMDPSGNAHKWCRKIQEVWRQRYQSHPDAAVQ
Procedure: as §2, §1

EGFR = EGFR (Homo sapiens, UniProt P00533); assay: Kinase selectivity, % remaining activity; conditions: 10 μM compound, 10 μM ATP, duplicate
EGFR, sequence (P00533 25-1210): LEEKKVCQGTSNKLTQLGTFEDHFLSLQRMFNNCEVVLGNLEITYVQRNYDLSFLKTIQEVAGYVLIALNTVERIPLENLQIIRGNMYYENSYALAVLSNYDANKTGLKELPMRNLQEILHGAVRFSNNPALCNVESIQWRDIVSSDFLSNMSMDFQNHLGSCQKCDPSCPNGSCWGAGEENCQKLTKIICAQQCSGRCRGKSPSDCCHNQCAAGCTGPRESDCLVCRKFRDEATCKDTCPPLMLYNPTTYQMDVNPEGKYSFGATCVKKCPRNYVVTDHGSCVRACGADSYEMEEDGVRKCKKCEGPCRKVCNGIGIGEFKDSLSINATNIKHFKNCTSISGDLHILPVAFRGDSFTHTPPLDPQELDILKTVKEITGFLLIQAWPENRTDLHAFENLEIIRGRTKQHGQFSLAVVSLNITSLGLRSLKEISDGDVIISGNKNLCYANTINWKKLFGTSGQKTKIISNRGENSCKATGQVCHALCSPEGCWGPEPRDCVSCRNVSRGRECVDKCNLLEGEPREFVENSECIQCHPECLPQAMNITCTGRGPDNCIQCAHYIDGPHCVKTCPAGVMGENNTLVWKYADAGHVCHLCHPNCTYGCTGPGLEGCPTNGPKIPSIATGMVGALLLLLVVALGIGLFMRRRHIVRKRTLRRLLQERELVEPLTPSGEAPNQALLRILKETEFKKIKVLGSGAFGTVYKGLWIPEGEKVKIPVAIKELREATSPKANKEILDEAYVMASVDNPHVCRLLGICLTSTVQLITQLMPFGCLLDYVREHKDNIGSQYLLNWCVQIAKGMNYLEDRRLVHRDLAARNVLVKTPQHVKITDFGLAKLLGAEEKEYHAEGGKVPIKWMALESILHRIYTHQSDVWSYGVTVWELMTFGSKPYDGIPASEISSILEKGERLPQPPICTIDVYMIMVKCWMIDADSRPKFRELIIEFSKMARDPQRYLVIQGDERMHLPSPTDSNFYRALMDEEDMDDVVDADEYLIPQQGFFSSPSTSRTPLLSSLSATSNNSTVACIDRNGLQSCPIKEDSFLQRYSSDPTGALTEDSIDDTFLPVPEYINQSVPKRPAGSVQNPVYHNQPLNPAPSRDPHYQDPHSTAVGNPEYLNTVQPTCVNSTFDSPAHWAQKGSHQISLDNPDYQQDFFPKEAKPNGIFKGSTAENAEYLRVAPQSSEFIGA
Procedure: as §2, §1

CDK5/p25 = CDK5/p25 (Homo sapiens, UniProt Q00535); assay: Kinase selectivity, % remaining activity; conditions: 10 μM compound, 10 μM ATP, duplicate
CDK5/p25, sequence (Q00535 whole entry, species assumed): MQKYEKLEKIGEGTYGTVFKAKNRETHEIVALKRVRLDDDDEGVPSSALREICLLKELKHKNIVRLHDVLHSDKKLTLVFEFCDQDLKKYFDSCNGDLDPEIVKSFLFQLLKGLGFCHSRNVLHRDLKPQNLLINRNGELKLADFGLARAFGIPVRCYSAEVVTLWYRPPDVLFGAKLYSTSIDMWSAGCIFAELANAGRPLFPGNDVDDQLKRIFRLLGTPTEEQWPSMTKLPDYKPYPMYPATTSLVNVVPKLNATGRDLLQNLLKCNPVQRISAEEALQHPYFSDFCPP
Procedure: as §2, §1

[2] = read-out: % of remaining activity (relative to DMSO)

In the case of `COc1ccc(C=C2N=C(c3cccs3)OC2=O)cc1` [Comparative Compound 315, 4-((4-methoxyphenyl)methylene)-2-(2-thienyl)-5(4H)-oxalone], the “% of remaining activity (relative to DMSO)” value (CK1a1; listed as Cmp 315) is reported as 44.41%, the remaining activity at 10 µM (CK1a1; [2]) is reported as 33.6% and the “% of remaining activity (relative to DMSO)” value ([1]; CK1d, 10 μM compound, duplicate, listed as Cmp 315) is reported as 1.38%. For the same molecule, the remaining activity at 10 µM ([1]; CK1d, 10 μM compound, duplicate, read-out: % of remaining activity (relative to DMSO)) was 2.23%, the IC50 ([1]; casein kinase 1 delta, 10-dose, 3 fold serial dilution) was 435 nM and the “% of remaining activity (relative to DMSO)” value (CK1g3; listed as Cmp 315) was 2.99%. For the same molecule, the remaining activity at 10 µM (CK1g3; [2]) was 2.9%, the “% of remaining activity (relative to DMSO)” value (YES/YES1; listed as Cmp 315) was 99.08% and the remaining activity at 10 µM (YES/YES1; [2]) was 99%. For the same molecule, the “% of remaining activity (relative to DMSO)” value (KDR/VEGFR2; listed as Cmp 315) was 107.86%, the remaining activity at 10 µM (KDR/VEGFR2; [2]) was 104% and the “% of remaining activity (relative to DMSO)” value (TNIK; listed as Cmp 315) was 101.11%. For the same molecule, the remaining activity at 10 µM (TNIK; [2]) was 101%, the “% of remaining activity (relative to DMSO)” value (GSK3B; listed as Cmp 315) was 115.26% and the remaining activity at 10 µM (GSK3B; [2]) was 120%. The “% of remaining activity (relative to DMSO)” value (PKA; listed as Cmp 315) was 112.40%, the remaining activity at 10 µM (PKA; [2]) was 116% and the “% of remaining activity (relative to DMSO)” value (ALK5/TGFBR1; listed as Cmp 315) was 110.31%. For the same molecule, the remaining activity at 10 µM (ALK5/TGFBR1; [2]) was 107%, the “% of remaining activity (relative to DMSO)” value (ABL2/ARG; listed as Cmp 315) was 89.19% and the remaining activity at 10 µM (ABL2/ARG; [2]) was 83.4%. The “% of remaining activity (relative to DMSO)” value (RIPK2; listed as Cmp 315) was 90.19%, the remaining activity at 10 µM (RIPK2; [2]) was 93.4% and the “% of remaining activity (relative to DMSO)” value (PIM3; listed as Cmp 315) was 57.54%. For the same molecule, the remaining activity at 10 µM (PIM3; [2]) was 60.6%, the “% of remaining activity (relative to DMSO)” value (CLK2; listed as Cmp 315) was 48.99% and the remaining activity at 10 µM (CLK2; [2]) was 50.6%. For the same molecule, the “% of remaining activity (relative to DMSO)” value (JNK2; listed as Cmp 315) was 98.70%, the remaining activity at 10 µM (JNK2; [2]) was 99.4% and the “% of remaining activity (relative to DMSO)” value (c-Src; listed as Cmp 315) was 101.24%. The remaining activity at 10 µM (c-Src; [2]) was 104%, the “% of remaining activity (relative to DMSO)” value (FGFR1; listed as Cmp 315) was 101.65% and the remaining activity at 10 µM (FGFR1; [2]) was 102%. For the same molecule, the “% of remaining activity (relative to DMSO)” value (EPHA2; listed as Cmp 315) was 96.60%, the remaining activity at 10 µM (EPHA2; [2]) was 99% and the “% of remaining activity (relative to DMSO)” value (MSK1/RPS6KA5; listed as Cmp 315) was 118.15%. For the same molecule, the remaining activity at 10 µM (MSK1/RPS6KA5; [2]) was 117%, the “% of remaining activity (relative to DMSO)” value (PDK1/PDPK1; listed as Cmp 315) was 103.28% and the remaining activity at 10 µM (PDK1/PDPK1; [2]) was 105%. For the same molecule, the “% of remaining activity (relative to DMSO)” value (EGFR; listed as Cmp 315) was 117.99%, the remaining activity at 10 µM (EGFR; [2]) was 111% and the “% of remaining activity (relative to DMSO)” value (CDK5/p25; listed as Cmp 315) was 94.86%. For the same molecule, the remaining activity at 10 µM (CDK5/p25; [2]) was 96.1%.
